Data reported in US9221795B2, “Phosphatidylinositol 3-kinase inhibitors” (Gilead Sciences, Inc., priority 2013, dated 2015).
pEC50, pIC50: −log10 of the molar value.

Legend:
[1] = Hepatocyte stability (parent drug disappearance in cryopreserved hepatocytes); assay type: in vitro ADME, human; settings: human, cryopreserved human hepatocytes, human hepatocytes
Procedure: This assay was used to evaluate the metabolic stability of test articles (TA) following incubation in cryopreserved hepatocytes by monitoring parent drug disappearance via LC/MC. The TA was incubated with 1 million hepatocytes/mL at 2 μM substrate in duplicate. The incubation was carried out at 37° C. with 5% CO2 and saturating humidity. Samples were taken at 0, 1, 2, and 4 hours to monitor the disappearance of TA and a half-life (t1/2) was determined. Table 3 below summarizes the human hepatocyte t1/2 values (hours) collected in the Example.

[2] = tested on: basophils; assay: Basophil activation in human whole blood (Flow2 CAST kit, CD63 flow cytometry); assay type: cell-based
Procedure: Effect on basophil activation was measured in human whole blood using the Flow2 CAST® kit (Buhlmann Laboratories AG, Baselstrasse, Switzerland) following the protocol provided by the manufacturer with minor modifications. Human whole blood was collected into K2-EDTA venipuncture tubes. Whole blood samples were treated with either DMSO (0.3% final) or a serial dilution of compounds in DMSO for 60 minutes at 37° C. Basophils were then activated either with anti-FcεRI mAb or with fMLP. To activate basophils using the anti-FcεRI mAb; 50 μL of whole blood was mixed with 110 μL of stimulation buffer (B-BAT-STB) and 20 μl of anti-FcεRI (B-BAT-STCON). To activate basophils with fMLP; 50 μL of whole blood was mixed with 80 μL of stimulation buffer (B-BAT-STB) and 50 μL of fMLP (B-CCR-FMLP). Stimulation buffer was used as a negative control. 20 μL of the staining reagent (combination of anti-human CD63-FITC and anti-human CCR3-PE mAbs) was then added to each tube. The tubes were mixed gently and incubated for 25 minutes at 37° C. Subsequently, erythrocytes were lysed and fixed by the addition of 2 mL of lysing solution (B-BAT-LYR) for 10 minutes at room temperature. Cells were pelleted by centrifugation at 1200 rpm for 10 minutes at room temperature in a swing-out rotor. Supernatant was aspirated and cell pellet resuspended in 400 μL of wash buffer. Flow cytometric analysis of the basophil activation was performed on a FC500MPL flow cytometer (Beckman Coulter Inc., Fullerton, Calif.). CCR3-staining and side scatter were applied to gate at least 200 basophils that expressed a high density of CCR3. The percent CD63 positive cells within the gated basophil population were determined in different treatment groups and normalized to the vehicle control (0.3% DMSO) with anti-FcεRI mAb of fMLP stimulus as 100%. Final compound concentration was adjusted to correct for dilution effect of added reagents. The EC50 values were calculated from the analysis of the dose-response curves to a four-parameter equation.

[3] = target: PI3Kδ (Homo sapiens (Human), UniProt O00329); assay: Enzymatic activity of PI3K isoforms, TR-FRET assay (PI3Kδ); assay type: biochemical; settings: 2× Km ATP, geometric mean if more than one value
Sequence of PI3Kδ (O00329 whole entry, canonical isoform): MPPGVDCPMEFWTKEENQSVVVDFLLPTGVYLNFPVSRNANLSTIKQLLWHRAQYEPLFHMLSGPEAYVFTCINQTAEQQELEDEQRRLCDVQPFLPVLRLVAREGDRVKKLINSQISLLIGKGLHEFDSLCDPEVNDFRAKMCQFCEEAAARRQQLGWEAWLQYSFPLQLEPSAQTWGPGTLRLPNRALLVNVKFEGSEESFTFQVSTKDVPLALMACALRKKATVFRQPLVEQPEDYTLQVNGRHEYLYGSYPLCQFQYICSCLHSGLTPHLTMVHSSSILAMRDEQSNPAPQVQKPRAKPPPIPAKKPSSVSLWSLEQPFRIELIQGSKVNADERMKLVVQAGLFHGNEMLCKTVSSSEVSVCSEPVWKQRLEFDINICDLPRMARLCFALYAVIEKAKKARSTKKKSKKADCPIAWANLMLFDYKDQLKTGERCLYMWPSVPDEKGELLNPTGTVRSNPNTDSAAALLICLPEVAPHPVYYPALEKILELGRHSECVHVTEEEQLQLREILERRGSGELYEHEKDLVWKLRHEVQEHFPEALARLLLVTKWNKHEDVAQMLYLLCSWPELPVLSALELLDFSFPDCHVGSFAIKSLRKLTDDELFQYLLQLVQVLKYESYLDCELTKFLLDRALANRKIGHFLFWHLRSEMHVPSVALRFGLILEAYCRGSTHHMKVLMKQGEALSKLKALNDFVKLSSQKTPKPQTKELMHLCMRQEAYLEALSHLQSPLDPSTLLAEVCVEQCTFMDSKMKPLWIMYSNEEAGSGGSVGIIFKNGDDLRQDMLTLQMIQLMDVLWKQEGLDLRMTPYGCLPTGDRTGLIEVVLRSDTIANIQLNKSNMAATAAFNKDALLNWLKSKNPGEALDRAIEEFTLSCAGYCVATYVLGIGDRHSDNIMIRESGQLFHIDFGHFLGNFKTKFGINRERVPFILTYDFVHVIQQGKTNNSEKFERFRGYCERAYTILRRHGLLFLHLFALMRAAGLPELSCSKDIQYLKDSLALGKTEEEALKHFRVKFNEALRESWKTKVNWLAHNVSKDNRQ
Sequence of PI3Kδ (P27986 whole entry partner, canonical isoform): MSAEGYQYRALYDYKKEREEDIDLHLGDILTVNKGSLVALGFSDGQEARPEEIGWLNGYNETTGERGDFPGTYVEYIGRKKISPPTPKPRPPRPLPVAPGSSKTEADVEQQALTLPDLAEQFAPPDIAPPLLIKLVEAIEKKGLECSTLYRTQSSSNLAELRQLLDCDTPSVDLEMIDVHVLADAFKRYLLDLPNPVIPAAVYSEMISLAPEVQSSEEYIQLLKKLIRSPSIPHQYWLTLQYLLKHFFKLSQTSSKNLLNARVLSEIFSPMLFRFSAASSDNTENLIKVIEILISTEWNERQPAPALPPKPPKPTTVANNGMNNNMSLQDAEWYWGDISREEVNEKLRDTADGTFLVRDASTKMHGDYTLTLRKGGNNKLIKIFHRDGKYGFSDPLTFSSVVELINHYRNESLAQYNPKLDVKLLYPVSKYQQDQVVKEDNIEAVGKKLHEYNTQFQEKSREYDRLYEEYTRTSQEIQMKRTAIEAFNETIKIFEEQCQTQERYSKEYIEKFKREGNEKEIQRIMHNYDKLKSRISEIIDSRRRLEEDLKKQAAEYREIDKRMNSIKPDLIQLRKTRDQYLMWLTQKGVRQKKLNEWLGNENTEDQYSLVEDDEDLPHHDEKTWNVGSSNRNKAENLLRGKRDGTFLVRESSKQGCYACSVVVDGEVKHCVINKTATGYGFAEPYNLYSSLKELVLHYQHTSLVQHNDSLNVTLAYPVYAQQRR
Procedure, shortened: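 Recombinant heterodimeric PI3Kβ or PI3Kδ (25-50 pM) was run with 2 μM PIP2 and 2× Km ATP (75-500 μM) at pH 7.4, for 30 min at 25° C. PIP3 formation was detected by TR-FRET displacement of labeled PIP3 from Eu-GRP-1. IC50 values in nM come from four-parameter fits, as geometric means.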

[4] = class symbol, 2 μM substrate, 37° C.
[5] = 2 μM substrate, 37° C., Table 3
[6] = Homo sapiens, class symbol, human whole blood, basophils activated with anti-FcεRI mAb or fMLP, percent CD63 positive cells
[7] = Homo sapiens, human whole blood, basophils activated with anti-FcεRI mAb or fMLP, percent CD63 positive cells, geometric mean

| Structure (SMILES) | half-life at 2 μM [1, 4] [min] | half-life at 2 μM [1, 5] [min] | pEC50 [2, 6] | pEC50 [2, 7] | pIC50 [3] | pEC50 ([2]; class symbol, human whole blood, basophils activated with anti-FcεRI mAb or fMLP, percent CD63 positive cells) | pEC50 ([2]; human whole blood, basophils activated with anti-FcεRI mAb or fMLP, percent CD63 positive cells, geometric mean) | half-life at 2 μM ([1]; comparison Table 4) [min] | pEC50 ([2]; Homo sapiens, basophil activation in human whole blood, comparison Table 4) |
| --- | --- | --- | --- | --- | --- | --- | --- | --- | --- |
| CC[C@H](Nc1nc(N)nc(N)c1C#N)c1nc2cccc(Cl)c2c(=O)n1-c1cncc(F)c1 [Compound 20, (S)-2,4-diamino-6-(1-(5-chloro-3-(5-fluoropyridin-3-yl)-4-oxo-3,4-dihydroquinazolin-2-yl)propylamino)pyrimidine-5-carbonitrile] | > 600 | > 600 | 8.00 to 9.00 | 8.52 | 8.52 | – | – | – | – |
| C[C@H](Nc1nc(N)nc(N)c1C#N)c1nc2c(F)ccc(Cl)c2c(=O)n1-c1cncc(F)c1 [Compound 31, (S)-2,4-diamino-6-(1-(5-chloro-8-fluoro-3-(5-fluoropyridin-3-yl)-4-oxo-3,4-dihydroquinazolin-2-yl)ethylamino)pyrimidine-5-carbonitrile] | > 600 | > 600 | > 9.00 | 9.30 | 9.00 | – | – | – | – |
| C[C@H](Nc1nc(N)nc(N)c1C#N)c1nc2cccc(C(F)(F)F)c2c(=O)n1-c1cccnc1 [Compound 9, (S)-2,4-diamino-6-(1-(4-oxo-3-(pyridin-3-yl)-5-(trifluoromethyl)-3,4-dihydroquinazolin-2-yl)ethylamino)pyrimidine-5-carbonitrile] | > 600 | > 600 | 8.00 to 9.00 | 8.52 | 8.70 | – | – | – | – |
| Cc1ccncc1-n1c([C@H](C)Nc2nc(N)nc(N)c2C#N)nc2cccc(Cl)c2c1=O (atropisomer, axis not shown) [Compound 41, (S)-2,4-diamino-6-(1-(5-chloro-3-(4-methylpyridin-3-yl)-4-oxo-3,4-dihydroquinazolin-2-yl)ethylamino)pyrimidine-5-carbonitrile] | > 600 | > 600 | – | – | 9.40 | 8.00 to 9.00 | 8.40 | – | – |
| C[C@H](Nc1nc(N)nc(N)c1C#N)c1nc2cccc(Cl)c2c(=O)n1-c1cccnc1 [Compound 1, (S)-2,4-diamino-6-((1-(5-chloro-4-oxo-3-(pyridin-3-yl)-3,4-dihydroquinazolin-2-yl)ethyl)amino)pyrimidine-5-carbonitrile] | > 600 | > 600 | > 9.00 | 9.05 | 9.22 | – | – | > 600 | > 9.00 |
| N#Cc1c(N)nc(N)nc1N[C@H](c1nc2cccc(Cl)c2c(=O)n1-c1cccnc1)C1CC1 [Compound 3, (S)-2,4-diamino-6-((5-chloro-4-oxo-3-(pyridin-3-yl)-3,4-dihydroquinazolin-2-yl)(cyclopropyl)methylamino)pyrimidine-5-carbonitrile] | > 600 | > 600 | 8.00 to 9.00 | 8.70 | 9.22 | – | – | – | – |
| N#Cc1c(N)nc(N)nc1N[C@H](c1nc2c(F)ccc(Cl)c2c(=O)n1-c1cncc(F)c1)C1CC1 [Compound 33, (S)-2,4-diamino-6-((5-chloro-8-fluoro-3-(5-fluoropyridin-3-yl)-4-oxo-3,4-dihydroquinazolin-2-yl)(cyclopropyl)methylamino)pyrimidine-5-carbonitrile] | > 600 | > 600 | 8.00 to 9.00 | 8.30 | 8.70 | – | – | – | – |
| C[C@H](Nc1nc(N)nc(N)c1C#N)c1nc2c(F)ccc(Cl)c2c(=O)n1-c1cccnc1 [Compound 24, (S)-2,4-diamino-6-(1-(5-chloro-8-fluoro-4-oxo-3-(pyridin-3-yl)-3,4-dihydroquinazolin-2-yl)ethylamino)pyrimidine-5-carbonitrile] | > 600 | > 600 | > 9.00 | 9.52 | 9.40 | – | – | – | – |
| Cc1ncc(F)cc1-n1c([C@H](C)Nc2nc(N)nc(N)c2C#N)nc2cccc(Cl)c2c1=O (atropisomer, axis not shown) [Compound 45, (S)-2,4-diamino-6-(1-(5-chloro-3-(5-fluoro-2-methylpyridin-3-yl)-4-oxo-3,4-dihydroquinazolin-2-yl)ethylamino)pyrimidine-5-carbonitrile] | 180 to 360 | 240 | 8.00 to 9.00 | 8.15 | 8.22 | – | – | – | – |
| C[C@H](Nc1nc(N)nc(N)c1C#N)c1nc2cccc(Cl)c2c(=O)n1-c1cncc(F)c1 [Compound 12, (S)-2,4-diamino-6-(1-(5-chloro-3-(5-fluoropyridin-3-yl)-4-oxo-3,4-dihydroquinazolin-2-yl)ethylamino)pyrimidine-5-carbonitrile] | > 600 | > 600 | 8.00 to 9.00 | 9.00 | 8.70 | – | – | – | – |
| C[C@H](Nc1nc(N)nc(N)c1C#N)c1nc2c(Cl)cccc2c(=O)n1-c1cccnc1 [Compound 22, (S)-2,4-diamino-6-(1-(8-chloro-4-oxo-3-(pyridin-3-yl)-3,4-dihydroquinazolin-2-yl)ethylamino)pyrimidine-5-carbonitrile] | 360 to 600 | 540 | 8.00 to 9.00 | 8.30 | 8.22 | – | – | – | – |
| C[C@H](Nc1nc(N)nc(N)c1C#N)c1nc2c(Cl)ccc(Cl)c2c(=O)n1-c1cccnc1 [Compound 23, (S)-2,4-diamino-6-(1-(5,8-dichloro-4-oxo-3-(pyridin-3-yl)-3,4-dihydroquinazolin-2-yl)ethylamino)pyrimidine-5-carbonitrile] | > 600 | > 600 | > 9.00 | 9.10 | 9.15 | – | – | – | – |
| C[C@H](Nc1nc(N)nc(N)c1C#N)c1nc2cccc(Cl)c2c(=O)n1-c1cncc(C2CC2)c1 [Compound 19, (S)-2,4-diamino-6-(1-(5-chloro-3-(5-cyclopropylpyridin-3-yl)-4-oxo-3,4-dihydroquinazolin-2-yl)ethylamino)pyrimidine-5-carbonitrile] | 360 to 600 | 420 | 8.00 to 9.00 | 8.15 | 8.30 | – | – | – | – |
| C[C@H](Nc1nc(N)nc(N)c1C#N)c1nc2ccc(F)cc2c(=O)n1-c1cccnc1 [Compound 5, (S)-2,4-diamino-6-(1-(6-fluoro-4-oxo-3-(pyridin-3-yl)-3,4-dihydroquinazolin-2-yl)ethylamino)pyrimidine-5-carbonitrile] | > 600 | > 600 | 8.00 to 9.00 | 8.70 | 7.85 | – | – | – | – |
| C[C@H](Nc1nc(N)nc(N)c1C#N)c1nc2cccc(Cl)c2c(=O)n1-c1cncc(C(F)F)c1 [Compound 15, (S)-2,4-diamino-6-(1-(5-chloro-3-(5-(difluoromethyl)pyridin-3-yl)-4-oxo-3,4-dihydroquinazolin-2-yl)ethylamino)pyrimidine-5-carbonitrile] | > 600 | > 600 | 7.30 to 8.00 | 7.72 | 8.40 | – | – | – | – |
| Cc1cncc(-n2c([C@H](C)Nc3nc(N)nc(N)c3C#N)nc3c(F)ccc(Cl)c3c2=O)c1 [Compound 32, (S)-2,4-diamino-6-(1-(5-chloro-8-fluoro-3-(5-methylpyridin-3-yl)-4-oxo-3,4-dihydroquinazolin-2-yl)ethylamino)pyrimidine-5-carbonitrile] | > 600 | > 600 | > 9.00 | 9.40 | 8.70 | – | – | – | – |
| CC[C@H](Nc1nc(N)nc(N)c1C#N)c1nc2c(F)ccc(Cl)c2c(=O)n1-c1cccnc1 [Compound 26, (S)-2,4-diamino-6-(1-(5-chloro-8-fluoro-4-oxo-3-(pyridin-3-yl)-3,4-dihydroquinazolin-2-yl)propylamino)pyrimidine-5-carbonitrile] | > 600 | > 600 | > 9.00 | 9.15 | 9.00 | – | – | – | – |
